Measurements as given in US8163768B2, “1,4-dihydropyridine-fused heterocycles, process for preparing the same, use and compositions containing them” (Aventis Pharma S.A.., priority 2005, dated 2012).
pIC50: −log10 of the molar value. Counter-ions that a name gives are not always drawn.

Columns and labels:
[1] = biological target: T1, Aurora2 (Aurora-A) (Homo sapiens, UniProt O14965); experiment: Aurora 2 (Aurora A) kinase radioactivity scintillation assay using nickel chelate Flash plates; assay type: biochemical; settings: 10 nM Aurora-A, 500 nM NuMA substrate, 1 μM ATP with [33P] ATP, 10 mM MgCl2, 30 minutes, 37° C.
T1 construct: Aurora-A: the full length recombinant protein including an N-terminal poly-histidine tail has been expressed in E. coli; poly-histidine (N); made in house; host or cells: E. coli
T1 sequence (O14965 1-403): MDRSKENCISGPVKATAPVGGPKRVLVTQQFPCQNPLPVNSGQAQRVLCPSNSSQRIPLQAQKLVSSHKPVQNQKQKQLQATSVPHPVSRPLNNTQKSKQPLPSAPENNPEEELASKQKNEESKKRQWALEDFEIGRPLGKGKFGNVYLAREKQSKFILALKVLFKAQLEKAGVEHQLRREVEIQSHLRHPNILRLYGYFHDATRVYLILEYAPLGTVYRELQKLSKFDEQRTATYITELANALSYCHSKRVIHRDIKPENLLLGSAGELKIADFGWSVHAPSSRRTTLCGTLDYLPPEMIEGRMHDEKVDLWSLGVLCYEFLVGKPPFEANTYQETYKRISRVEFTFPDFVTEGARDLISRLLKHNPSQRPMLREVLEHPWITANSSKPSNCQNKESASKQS
Procedure, shortened: (§1)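 10 nM Aurora-B or Aurora-A with 500 nM NuMA-His substrate, 1 μM ATP plus [³³P]ATP, in 50 mM NaCl, 1 mM DTT and 5 mM (B) or 10 mM (A) MgCl2, 30 min at 37° C on nickel-chelate plates. Incorporated ³³P counted after washing, background-subtracted; IC50 fitted from % inhibition versus concentration.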

[2] = biological target: T2, Aurora1 (Aurora-B) (Homo sapiens, UniProt Q96GD4); experiment: Aurora 1 (Aurora B) kinase radioactivity scintillation assay using nickel chelate Flash plates; assay type: biochemical; settings: 10 nM Aurora-B (co expressed with C3 fragment of INCEP), 500 nM NuMA substrate, 1 μM ATP with [33P] ATP, 5 mM MgCl2, 30 minutes, 37° C.
T2 construct: Aurora-B: the full length protein (His tagged in N-terminal) has been co expressed in SF9 cells; poly-histidine (N); made in house; host or cells: SF9 cells
Procedure, shortened: as §1

T2 sequence (Q96GD4 whole entry, species assumed, the tested form may be a part): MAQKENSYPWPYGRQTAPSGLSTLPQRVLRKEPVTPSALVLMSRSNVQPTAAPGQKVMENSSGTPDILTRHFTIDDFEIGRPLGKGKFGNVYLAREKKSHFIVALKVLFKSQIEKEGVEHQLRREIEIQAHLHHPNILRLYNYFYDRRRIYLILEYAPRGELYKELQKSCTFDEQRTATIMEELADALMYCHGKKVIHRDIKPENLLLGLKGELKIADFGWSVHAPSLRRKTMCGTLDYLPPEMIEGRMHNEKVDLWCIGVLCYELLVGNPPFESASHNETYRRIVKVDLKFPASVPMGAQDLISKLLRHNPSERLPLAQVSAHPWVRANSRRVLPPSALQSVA
T2 sequence (Q9NQS7 821-918 partner limits assumed, species assumed): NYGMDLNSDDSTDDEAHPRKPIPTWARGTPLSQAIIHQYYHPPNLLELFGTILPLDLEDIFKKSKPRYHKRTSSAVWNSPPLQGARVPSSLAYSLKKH

| Structure (SMILES) | pIC50 [1] | pIC50 [2] |
| --- | --- | --- |
| Cc1ccc2[nH]c(Sc3ccc(C4C5=C(CC(C)(C)CC5=O)Nc5n[nH]cc54)s3)nc2c1 (stereo not shown) [Example 102, 7,7-Dimethyl-4-[5-(5-methyl-1H-benzoimidazol-2-ylsulfanyl)-thiophen-2-yl]-2,4,6,7,8,9-hexahydro-pyrazolo[3,4-b]quinolin-5-one] | 6.22 | 7.35 |
| Cc1ccc2[nH]c(Sc3ccc(C4C5=C(CNCC5=O)Nc5n[nH]cc54)s3)nc2c1 (stereo not shown) [Example 103, 4-[5-(5-Methyl-1H-benzoimidazol-2-ylsulfanyl)-thiophen-2-yl]-2,4,6,7,8,9-hexahydro-pyrazolo[3,4-b]-1,7-naphthyridin-5-one; compound with trifluoro-acetic acid] | 5.33 | 6.52 |
| CCOC(=O)c1[nH]cc2c1NC1=C(C(=O)CC(C)(C)C1)C2c1ccc(Sc2nc3cc(C)ccc3[nH]2)o1 (stereo not shown) [Example 109, 6,6-Dimethyl-9-[5-(5-methyl-1H-benzimidazol-2-ylsulfanyl)-furan-2-yl]-8-oxo-4,5,6,7,8,9-hexahydro-2H-pyrrolo[3,4-b]quinoline-3-carboxylic acid ethyl ester] | 7.20 | 7.77 |
| CCOC(=O)c1[nH]cc2c1NC1=C(C(=O)CNC1)C2c1ccc(Sc2nc3cccnc3[nH]2)o1 (stereo not shown) [Example 113, 9-[5-(3H-Imidazo[4,5-b]pyridin-2-ylsulfanyl)-furan-2-yl]-8-oxo-4,5,6,7,8,9-hexahydro-2H-pyrrolo[3,4-b][1,7]naphthyridine-3-carboxylic acid ethyl ester] | 6.95 | 7.64 |
| CC1(C)CC(=O)C2=C(C1)Nc1c(c[nH]c1C(=O)O)C2c1ccc(Sc2nc3ccccc3[nH]2)o1 (stereo not shown) [Example 124, 9-[5-(1H-Benzimidazol-2-ylsulfanyl)-furan-2-yl]-6,6-dimethyl-8-oxo-4,5,6,7,8,9-hexahydro-2H-pyrrolo[3,4-b]quinoline-3-carboxylic acid] | 7.70 | 7.82 |
| CC1(C)CC(=O)C2=C(C1)Nc1c(c[nH]c1C(N)=O)C2c1ccc(Sc2nc3ccccc3[nH]2)o1 (stereo not shown) [Example 125, 9-[5-(1H-Benzimidazol-2-ylsulfanyl)-furan-2-yl]-6,6-dimethyl-8-oxo-4,5,6,7,8,9-hexahydro-2H-pyrrolo[3,4-b]quinoline-3-carboxamide] | 7.64 | 7.96 |
| CCOC(=O)c1[nH]cc2c1NC1=C(C(=O)CN(C(=O)OC(C)(C)C)C1)C2c1ccc(Sc2nc3cc(Cl)ccc3[nH]2)o1 (stereo not shown) [Example 130] | 6.36 | 7.43 |
| CCOC(=O)c1[nH]cc2c1NC1=C(C(=O)CN(C(=O)OC(C)(C)C)C1)C2c1ccc(Sc2nc3cc(Cl)c(C)cc3[nH]2)o1 (stereo not shown) [Example 134] | 6.28 | 7.33 |
| CCOC(=O)c1[nH]cc2c1NC1=C(C(=O)CNC1)C2c1ccc(Sc2nc3cc(Cl)c(C)cc3[nH]2)o1 (stereo not shown) [Example 135, 9-[5-(5-Chloro-6-methyl-1H-benzimidazol-2-ylsulfanyl)-furan-2-yl]-8-oxo-4,5,6,7,8,9-hexahydro-2H-pyrrolo[3,4-b]-1,7-naphthyridine-3-carboxylic acid ethyl ester hydrochloride] | 6.92 | 7.66 |
| CCOC(=O)c1[nH]cc2c1NC1=C(C(=O)CN(C(=O)OC(C)(C)C)C1)C2c1ccc(Sc2nc3cc(Cl)cc(C)c3[nH]2)o1 (stereo not shown) [Example 137, 6-tert-Butyloxy-9-[5-(5-chloro-7-methyl-1H-benzimidazol-2-ylsulfanyl)-furan-2-yl]-8-oxo-2,4,5,7,8,9-hexahydro-pyrrolo[3,4-b]-1,7-naphthyridine-3-carboxylic acid ethyl ester] | 6.69 | 7.03 |
| CCOC(=O)c1[nH]cc2c1NC1=C(C(=O)CNC1)C2c1ccc(Sc2nc3cc(Cl)cc(C)c3[nH]2)o1 (stereo not shown) [Example 138, 9-[5-(5-Chloro-7-methyl-1H-benzimidazol-2-ylsulfanyl)-furan-2-yl]-8-oxo-4,5,6,7,8,9-hexahydro-2H-pyrrolo[3,4-b]-1,7-naphthyridine-3-carboxylic acid ethyl ester hydrochloride] | 8.10 | 8.22 |

The remaining lines, values ahead:

| pIC50 [1] | pIC50 [2] | Structure (SMILES) |
| --- | --- | --- |
| 5.53 | 5.59 | CCOC(=O)c1[nH]cc2c1NC1=C(C(=O)CCCC1)C2c1ccc(Sc2nc3ccccc3[nH]2)o1 (stereo not shown) [Example 107, 10-[5-(1H-Benzoimidazol-2-ylsulfanyl)-furan-2-yl]-9-oxo-2,4,5,6,7,8,9,10-octahydro-2,4-diaza-cyclohepta[f]indene-3-carboxylic acid ethyl ester, compound with trifluoroacetic acid] |
| 7.39 | 8.10 | CCOC(=O)c1[nH]cc2c1NC1=C(C(=O)CCC1)C2c1ccc(Sc2nc3cc(C)ccc3[nH]2)o1 (stereo not shown) [Example 108, 9-[5-(5-Methyl-1H-benzimidazol-2-ylsulfanyl)-furan-2-yl]-8-oxo-4,5,6,7,8,9-hexahydro-2H-pyrrolo[3,4-b]quinoline-3-carboxylic acid ethyl ester] |
| 5.51 | 6.71 | CCOC(=O)c1[nH]cc2c1NC1=C(C(=O)CCC1)C2c1ccc(Sc2nc3ccncc3[nH]2)o1 (stereo not shown) [Example 117, 9-[5-(3H-Imidazo[4,5-c]pyridin-2-ylsulfanyl)-furan-2-yl]-8-oxo-4,5,6,7,8,9-hexahydro-2H-pyrrolo[3,4-b]quinoline-3-carboxylic acid ethyl ester] |
| 6.09 | 7.14 | CCOC(=O)c1[nH]cc2c1NC1=C(C(=O)CNC1)C2c1ccc(Sc2nc3cc(O)ccc3[nH]2)o1 (stereo not shown) [Example 123, 9-[5-(5-Hydroxy-1H-benzimidazol-2-ylsulfanyl)-furan-2-yl]-8-oxo-4,5,6,7,8,9-hexahydro-2H-pyrrolo[3,4-b]-1,7-naphthyridine-3-carboxylic acid ethyl ester hydrochloride] |
| 7.39 | 7.89 | CCOC(=O)c1[nH]cc2c1NC1=C(C(=O)CCC1)C2c1ccc(Sc2nc3cc(OC(F)F)ccc3[nH]2)o1 (stereo not shown) [Example 126, 9-[5-(5-Difluoromethoxy-1H-benzimidazol-2-ylsulfanyl)-furan-2-yl]-8-oxo-4,5,6,7,8,9-hexahydro-2H-pyrrolo[3,4-b]quinoline-3-carboxylic acid ethyl ester] |
| 6.25 | 7.03 | CCOC(=O)c1[nH]cc2c1NC1=C(C(=O)CN(C(=O)OC(C)(C)C)C1)C2c1ccc(Sc2nc3cc(OC(F)F)ccc3[nH]2)o1 (stereo not shown) [Example 127] |
| 6.94 | 7.77 | CCOC(=O)c1[nH]cc2c1NC1=C(C(=O)CNC1)C2c1ccc(Sc2nc3cc(OC(F)F)ccc3[nH]2)o1 (stereo not shown) [Example 128, 9-[5-(5-Difluoromethoxy-1H-benzimidazol-2-ylsulfanyl)-furan-2-yl]-8-oxo-4,5,6,7,8,9-hexahydro-2H-pyrrolo[3,4-b]-1,7-naphthyridine-3-carboxylic acid ethyl ester hydrochloride] |
| 7.09 | 8.00 | CCOC(=O)c1[nH]cc2c1NC1=C(C(=O)CNC1)C2c1ccc(Sc2nc3cc(Cl)ccc3[nH]2)o1 (stereo not shown) [Example 131, 9-[5-(5-Chloro-1H-benzimidazol-2-ylsulfanyl)-furan-2-yl]-8-oxo-4,5,6,7,8,9-hexahydro-2H-pyrrolo[3,4-b]-1,7-naphthyridine-3-carboxylic acid ethyl ester hydrochloride] |
| 6.94 | 7.85 | CCOC(=O)c1[nH]cc2c1NC1=C(C(=O)CCC1)C2c1ccc(Sc2nc3cc(C(F)(F)F)ccc3[nH]2)o1 (stereo not shown) [Example 132, 8-Oxo-9-[5-(5-trifluoromethyl-1H-benzimidazol-2-ylsulfanyl)-furan-2-yl]-4,5,6,7,8,9-hexahydro-2H-pyrrolo[3,4-b]quinoline-3-carboxylic acid ethyl ester] |
| 7.51 | 8.30 | CCOC(=O)c1[nH]cc2c1NC1=C(C(=O)CCC1)C2c1ccc(Sc2nc3cc(Cl)c(C)cc3[nH]2)o1 (stereo not shown) [Example 133, 9-[5-(5-Chloro-6-methyl-1H-benzimidazol-2-ylsulfanyl)-furan-2-yl]-8-oxo-4,5,6,7,8,9-hexahydro-2H-pyrrolo[3,4-b]quinoline-3-carboxylic acid ethyl ester] |
| 7.74 | 7.92 | CCOC(=O)c1[nH]cc2c1NC1=C(C(=O)CCC1)C2c1ccc(Sc2nc3cc(Cl)cc(C)c3[nH]2)o1 (stereo not shown) [Example 136, 9-[5-(5-Chloro-7-methyl-1H-benzimidazol-2-ylsulfanyl)-furan-2-yl]-8-oxo-4,5,6,7,8,9-hexahydro-2H-pyrrolo[3,4-b]quinoline-3-carboxylic acid ethyl ester] |
| 6.91 | 7.72 | CCOC(=O)c1[nH]cc2c1NC1=C(C(=O)CCC1)C2c1ccc(Sc2nc3cc4c(cc3[nH]2)OC(F)(F)O4)o1 (stereo not shown) [Example 139, 9-[5-(2,2-Difluoro-5H-[1,3]dioxolo[4′,5′:4,5]benzo[1,2-d]imidazol-6-ylsulfanyl)-furan-2-yl]-8-oxo-4,5,6,7,8,9-hexahydro-2H-pyrrolo[3,4-b]quinoline-3-carboxylic acid ethyl ester] |
